# Where two headings read alike, the source gives them in different places.
# Experiments:
# whole blood (pERK) [1] = assay: pERK Whole Blood assay (Table A; no whole-blood pERK method described); format: cell-based; settings: normalized
# human DGKζ = human DGKζ (Homo sapiens (Human), UniProt Q13574); assay: DGKζ LIPGLO assay (extruded liposome substrate, ADP-Glo luminescence); format: biochemical; settings: liposome assay; read-out: DGK zeta LIPGLO IC50
# human DGKα [2] = target: T1, human DGKα (Homo sapiens (Human), UniProt P23743); assay: DGKα LIPGLO assay (extruded liposome substrate, ADP-Glo luminescence); format: biochemical; settings: liposome assay; read-out: DGK alpha LIPGLO IC50
# T1 sequence (P23743 whole entry, looked up): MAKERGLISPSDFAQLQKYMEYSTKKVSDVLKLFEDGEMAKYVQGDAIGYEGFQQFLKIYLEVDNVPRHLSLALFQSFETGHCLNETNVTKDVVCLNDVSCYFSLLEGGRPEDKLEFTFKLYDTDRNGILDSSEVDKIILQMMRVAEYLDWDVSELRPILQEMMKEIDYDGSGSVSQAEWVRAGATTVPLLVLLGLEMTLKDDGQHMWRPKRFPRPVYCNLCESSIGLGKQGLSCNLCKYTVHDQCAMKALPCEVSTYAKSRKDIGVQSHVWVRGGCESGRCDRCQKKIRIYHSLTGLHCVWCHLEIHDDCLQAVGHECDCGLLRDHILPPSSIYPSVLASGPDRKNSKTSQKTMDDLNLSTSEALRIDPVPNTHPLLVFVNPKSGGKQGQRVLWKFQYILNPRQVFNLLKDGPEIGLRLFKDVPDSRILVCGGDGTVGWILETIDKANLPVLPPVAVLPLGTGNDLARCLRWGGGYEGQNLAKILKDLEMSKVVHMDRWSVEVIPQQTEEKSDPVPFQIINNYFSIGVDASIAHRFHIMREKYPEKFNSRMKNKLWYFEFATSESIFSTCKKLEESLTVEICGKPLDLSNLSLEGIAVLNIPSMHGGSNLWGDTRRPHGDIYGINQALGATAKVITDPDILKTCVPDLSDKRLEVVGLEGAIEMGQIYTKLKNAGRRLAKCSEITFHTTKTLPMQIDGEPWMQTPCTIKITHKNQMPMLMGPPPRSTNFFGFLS
# [3] = test system: human venous whole blood (IFN-γ); assay: Human whole blood IFN-γ assay; format: cell-based; settings: whole blood, normalized to 3 μM reference compound as 100% activation, read-out: IFN-γ Whole Blood Normalized EC50
# Procedure: Human venous whole blood (22.5 μL per well), obtained from healthy donors, was pre-treated with compounds for one hour at 37° C. in a humidified 95% air/5% CO2 incubator. The blood was stimulated with 2.5 μL anti-human CD3 and anti-CD28 mAb at a final concentration of 1 μg/mL each for 24 hours at 37° C. IFN-γ in the supernatants was measured using AlphLISA kit (Cat #AL217).
# human DGKα [4] = target: T1, human DGKα; assay: DGKα ADPGLO assay (detergent/lipid micelle substrate); format: biochemical; settings: truncated DGK alpha; read-out: DGK alpha ADPGLO (Truncated) IC50
# Procedure: DGK Alpha ADPGLO (Truncated) IC50 (uM)
# The detergent/lipid micelle was prepared by combining 15 g phosphatidylserine (Avanti 840035P) and 1 g diacylglycerol (8008110) and dissolving into 150 mL chloroform in a 2 L round bottom flask. Chloroform was removed under high vacuum by rotary evaporation. […] The lipid/detergent solution was split into 5 mL aliquots and stored at −80° C.
# whole blood (pERK) [5] = assay: pERK Whole Blood; format: cell-based
# Sequence of human DGKζ (Q13574 other isoform, or with tags, fused parts or gaps): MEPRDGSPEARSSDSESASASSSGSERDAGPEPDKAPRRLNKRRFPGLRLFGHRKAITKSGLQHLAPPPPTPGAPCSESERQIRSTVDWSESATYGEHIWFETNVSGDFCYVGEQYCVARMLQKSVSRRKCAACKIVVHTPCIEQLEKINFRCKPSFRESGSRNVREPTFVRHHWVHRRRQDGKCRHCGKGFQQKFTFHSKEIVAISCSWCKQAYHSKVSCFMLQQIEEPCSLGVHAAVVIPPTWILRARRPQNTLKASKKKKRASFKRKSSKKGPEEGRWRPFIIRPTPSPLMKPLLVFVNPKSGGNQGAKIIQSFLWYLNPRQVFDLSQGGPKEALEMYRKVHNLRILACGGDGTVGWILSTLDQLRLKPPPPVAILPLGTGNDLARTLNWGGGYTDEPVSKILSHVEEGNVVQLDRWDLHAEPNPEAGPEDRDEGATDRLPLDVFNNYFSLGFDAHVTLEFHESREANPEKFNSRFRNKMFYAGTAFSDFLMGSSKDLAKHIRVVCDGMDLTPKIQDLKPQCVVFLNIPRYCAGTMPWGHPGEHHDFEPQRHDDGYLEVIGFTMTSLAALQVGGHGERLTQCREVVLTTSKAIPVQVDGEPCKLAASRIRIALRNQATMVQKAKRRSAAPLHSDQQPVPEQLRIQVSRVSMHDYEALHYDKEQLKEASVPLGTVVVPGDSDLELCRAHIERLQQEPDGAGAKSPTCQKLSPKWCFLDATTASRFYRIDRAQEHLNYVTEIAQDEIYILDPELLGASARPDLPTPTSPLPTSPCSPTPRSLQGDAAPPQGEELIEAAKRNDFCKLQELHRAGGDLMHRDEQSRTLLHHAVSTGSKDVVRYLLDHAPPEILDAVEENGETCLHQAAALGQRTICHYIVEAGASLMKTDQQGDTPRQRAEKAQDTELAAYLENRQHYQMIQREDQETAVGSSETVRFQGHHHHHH
SMILES,IC50 (human DGKζ),IC50 (human DGKα [2]),IC50 (human DGKα [4]),EC50 (whole blood (pERK) [5]),IC50 (whole blood (pERK) [1]),EC50 [3],EC50 ([3]; Homo sapiens)
"CCC(c1ccc(OC(F)(F)F)cc1)N1C[C@H](C)N(c2nc(=O)n(C)c3ccc(C#N)nc23)C[C@H]1CC (single isomer, unassigned) [Example 84]",2090 nM,3220 nM,54 nM,,780 nM,670 nM,
"CC[C@H]1CN(C(C)c2ccc(C(F)(F)F)cc2)[C@H](CC)CN1c1nc(=O)n(C)c2ccc(OCCOC)nc12 (stereo partly drawn) [Example 434, 4-((2S,5R)-2,5-diethyl-4-(1-(4-(trifluoromethyl)phenyl)ethyl)piperazin-1-yl)-6-(2-methoxyethoxy)-1-methylpyrido[3,2-d]pyrimidin-2(1H)-one]",,,,20000 nM,,,
"CCC(c1ccc(OC(F)(F)F)cc1F)N1C[C@H](C)N(c2nc(=O)n(C)c3ccc(C#N)nc23)C[C@H]1CC (single isomer, unassigned) [Example 85]",91 nM,210 nM,66 nM,,66 nM,22 nM,
"C[C@@H]1CN(c2nc(=O)n(C)c3ccc(C#N)nc23)[C@@H](C)CN1C(c1ccc(F)cc1)C12CC(C(F)(F)F)(C1)C2 (stereo partly drawn) [Example 452, 4-((2S,5R)-4-((4-fluorophenyl)(3-(trifluoromethyl)bicyclo[1.1.1]pentan-1-yl)methyl)-2,5-dimethylpiperazin-1-yl)-1-methyl-2-oxo-1,2-dihydropyrido[3,2-d]pyrimidine-6-carbonitrile]",,,,20000 nM,,,
"CC[C@@H]1CN(c2nc(=O)n(C)c3ccc(C#N)nc23)[C@@H](C)CN1C(c1ccc(OC(F)(F)F)cc1)c1cc(C2CC2)on1 (single isomer, unassigned) [Example 100]",110 nM,250 nM,11 nM,,320 nM,,44 nM
"CC[C@H]1CN(C(c2ccc(F)cc2)c2nc(C3CC3)nn2C)[C@H](CC)CN1c1nc(=O)n(C)c2ccc(C#N)nc12 (single isomer, unassigned) [Example 295]",820 nM,7230 nM,100 nM,,100 nM,580 nM,
"CC[C@H]1CN(C(C)c2ccc(C(F)(F)F)cc2F)[C@H](CC)CN1c1nc(=O)n(C)c2ccc(C#N)nc12 (single isomer, unassigned) [Example 26]",210 nM,81 nM,29 nM,,240 nM,180 nM,
"CC[C@@H]1CN(c2nc(=O)n(C)c3ccc(C#N)nc23)[C@@H](C)CN1C(c1ccc(OC(F)(F)F)cc1)c1cc(C2CC2)on1 (stereo partly drawn) [Example 99, 4-((2S,5R)-4-((5-cyclopropylisoxazol-3-yl)(4-(trifluoromethoxy)phenyl)methyl)-5-ethyl-2-methylpiperazin-1-yl)-1-methyl-2-oxo-1,2-dihydropyrido[3,2-d]pyrimidine-6-carbonitrile]",120 nM,130 nM,4 nM,,140 nM,,120 nM
"CC[C@@H]1CN(c2nc(=O)n(C)c3ccc(C#N)nc23)[C@@H](C)CN1C(C)c1ccc(C2(C#N)CC2)cc1 (stereo partly drawn) [Example 326, 4-((2S,5R)-4-(1-(4-(1-cyanocyclopropyl)phenyl)ethyl)-5-ethyl-2-methylpiperazin-1-yl)-1-methyl-2-oxo-1,2-dihydropyrido[3,2-d]pyrimidine-6-carbonitrile]",,,,3480 nM,,,
"COC[C@@H]1CN(c2nc(=O)n(C)c3ccc(C#N)nc23)[C@@H](C)CN1C(C)c1ccc(OC(F)(F)F)cc1 (single isomer, unassigned) [Example 177]",770 nM,610 nM,,,520 nM,1710 nM,
"CC[C@H]1CN(C(c2ccc(OC(F)(F)F)cc2)c2cc(C3CC3)on2)[C@H](CC)CN1c1nc(=O)n(C)c2ccc(C#N)nc12 (single isomer, unassigned) [Example 42]",110 nM,78 nM,7 nM,,350 nM,,81 nM
"CC[C@H]1CN(C(c2ccc(OC(F)(F)F)cc2)c2cc(C3CC3)on2)[C@H](CC)CN1c1nc(=O)n(C)c2ccc(C#N)nc12 (single isomer, unassigned) [Example 43]",130 nM,22 nM,82 nM,,340 nM,120 nM,
"CC(c1ccc(OC(F)(F)F)cc1)N1C[C@H](C)N(c2nc(=O)n(C)c3ccc(C#N)nc23)C[C@H]1CO (single isomer, unassigned) [Example 183]",2690 nM,83 nM,,,270 nM,2330 nM,
"C[C@@H]1CN(c2nc(=O)n(C)c3ccc(C#N)nc23)[C@@H](C)CN1C(c1ccc(F)cc1)c1ccon1 (single isomer, unassigned) [Example 163]",460 nM,38 nM,,,490 nM,250 nM,
"CC[C@@H]1CN(c2nc(=O)n(C)c3ccc(C#N)nc23)[C@@H](C)CN1C(c1ccc(F)cc1)c1ccc(C2CC2)cn1 (single isomer, unassigned) [Example 75]",33 nM,39 nM,,,100 nM,30 nM,

# The next lines start with results.
IC50 (human DGKζ),IC50 (human DGKα [2]),IC50 (human DGKα [4]),EC50 (whole blood (pERK) [5]),SMILES,IC50 (whole blood (pERK) [1]),EC50 [3],EC50 ([3]; Homo sapiens)
160 nM,97 nM,15 nM,,"CCC(c1ccc(OC(F)(F)F)cc1)N1C[C@H](C)N(c2nc(=O)n(C)c3ccc(C#N)nc23)C[C@H]1CC (single isomer, unassigned) [Example 83]",87 nM,17 nM,
75 nM,16 nM,190 nM,,"CCC(c1ccc(OC(F)(F)F)cc1)N1C[C@H](CC)N(c2nc(=O)n(C)c3ccc(C#N)nc23)C[C@H]1CC (single isomer, unassigned) [Example 36]",250 nM,82 nM,
110 nM,55 nM,60 nM,,"CCC(c1ccc(C(F)(F)F)cc1)N1C[C@H](C)N(c2nc(=O)n(C)c3ccc(C#N)nc23)C[C@H]1CC (single isomer, unassigned) [Example 89]",260 nM,,35 nM
,,,20000 nM,"C[C@@H]1CN(c2nc(=O)n(C)c3ccc(C#N)nc23)[C@@H](C)CN1C(c1ccc(F)cc1)C12CC(C(F)(F)F)(C1)C2 (stereo partly drawn) [Example 451, 4-((2S,5R)-4-((4-fluorophenyl)(3-(trifluoromethyl)bicyclo[1.1.1]pentan-1-yl)methyl)-2,5-dimethylpiperazin-1-yl)-1-methyl-2-oxo-1,2-dihydropyrido[3,2-d]pyrimidine-6-carbonitrile]",,,
86 nM,200 nM,16 nM,,"CC[C@@H]1CN(c2nc(=O)n(C)c3ccc(C#N)nc23)[C@@H](C)CN1C(c1ccc(OC(F)(F)F)cc1)c1ccccn1 (single isomer, unassigned) [Example 94]",220 nM,43 nM,
22 nM,43 nM,11 nM,,"CC[C@@H]1CN(c2nc(=O)n(C)c3ccc(C#N)nc23)[C@@H](C)CN1C(c1ccc(F)cc1)c1nc(C2CC2)no1 (stereo partly drawn) [Example 112, 4-((2S,5R)-4-((3-cyclopropyl-1,2,4-oxadiazol-5-yl)(4-fluorophenyl)methyl)-5-ethyl-2-methylpiperazin-1-yl)-1-methyl-2-oxo-1,2-dihydropyrido[3,2-d]pyrimidine-6-carbonitrile]",15 nM,11 nM,
46 nM,47 nM,10 nM,,"CC[C@@H]1CN(c2nc(=O)n(C)c3ccc(C#N)nc23)[C@@H](C)CN1C(c1ccc(F)cc1)c1nc(C2CC2)no1 (stereo partly drawn) [Example 113, 4-((2S,5R)-4-((3-cyclopropyl-1,2,4-oxadiazol-5-yl)(4-fluorophenyl)methyl)-5-ethyl-2-methylpiperazin-1-yl)-1-methyl-2-oxo-1,2-dihydropyrido[3,2-d]pyrimidine-6-carbonitrile]",170 nM,57 nM,
45 nM,630 nM,210 nM,,"CC[C@@H]1CN(c2nc(=O)n(C)c3ccc(C#N)nc23)[C@@H](C)CN1C(c1ccc(F)cc1)c1ccc(C(F)(F)F)nc1 (single isomer, unassigned) [Example 97]",380 nM,,99 nM
55 nM,310 nM,26 nM,,"CC[C@@H]1CN(c2nc(=O)n(C)c3ccc(C#N)nc23)[C@@H](C)CN1C(c1ccc(F)cc1)c1ccc(C(F)(F)F)nc1 (single isomer, unassigned) [Example 98]",140 nM,88 nM,
48 nM,16 nM,,,"CC[C@@H]1CN(c2nc(=O)n(C)c3ccc(C#N)nc23)[C@@H](C)CN1C(C)c1ccc(OC(F)(F)F)cc1 (single isomer, unassigned) [Example 48]",25 nM,18 nM,
41 nM,320 nM,,,"CC[C@H]1CN(C(C)c2ccc(C3CC3)cc2F)[C@H](CC)CN1c1nc(=O)n(C)c2ccc(C#N)nc12 (single isomer, unassigned) [Example 40]",10 nM,21 nM,
